Data from patent publication US11596639B2, “Substituted indole Mcl-1 inhibitors” (Vanderbilt University, priority 2016, dated 2023).
Like-named read-outs stand apart in the source and are kept apart here.

Experiments:
[1] = target: Mcl-1 (Homo sapiens (Human), UniProt Q07820); assay: Fluorescence polarization anisotropy (FPA) competition assay, FITC-Bak or FITC-Bim BH3 peptide; format: binding; conditions: read-out: Ki for Inhibition of Mcl-1 by FPA assay
[2] = test system: H929 human cancer cell lines; assay: Cellular viability / proliferation (Cell TiterGlo, 72 h); format: cell-based
Summary of the method: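 Top dose 50 μM, serially diluted 2-fold, applied one day after seeding (1,000 cells/well, 10% FBS), DMSO below 1%.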

[3] = Homo sapiens, NCI-H929, 72 h, read-out: GI50 on cellular proliferation of H929 human cancer cell lines, H929 cells, 72 h, Cell TiterGlo, 10% FBS

Mcl-1, sequence (Q07820 172-327): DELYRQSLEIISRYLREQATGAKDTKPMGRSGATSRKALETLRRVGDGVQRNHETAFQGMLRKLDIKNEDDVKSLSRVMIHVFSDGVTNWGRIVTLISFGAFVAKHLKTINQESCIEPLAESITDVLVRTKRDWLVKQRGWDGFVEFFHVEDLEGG

With Cc1cc(OCCCc2c3n(c4c(-c5c(C)nn(C)c5C)c(Cl)ccc24)[C@H](C)CN(c2cn(C)c4ccc(-c5nnnn5C)cc24)C3=O)cc(C)c1Cl [Example 358, (R)-7-Chloro-10-(3-(4-chloro-3,5-dimethylphenoxy)propyl)-4-methyl-2-(1-methyl-5-(1-methyl-1H-tetrazol-5-yl)-1H-indol-3-yl)-6-(1,3,5-trimethyl-1H-pyrazol-4-yl)-3,4-dihydropyrazino[1,2-a]indol-1(2H)-one] the Ki [1] was 4.2 nM and the GI50 [2, 3] was 2300 nM.
In the case of Cc1cc(OCCCc2c3n(c4c(-c5c(C)nn(C)c5C)c(Cl)ccc24)[C@H](C)CN(c2cn(C)c4ccc(-c5nnn(C)n5)cc24)C3=O)cc(C)c1Cl [Example 350, (R)-7-Chloro-10-(3-(4-chloro-3,5-dimethylphenoxy)propyl)-4-methyl-2-(1-methyl-5-(2-methyl-2H-tetrazol-5-yl)-1H-indol-3-yl)-6-(1,3,5-trimethyl-1H-pyrazol-4-yl)-3,4-dihydropyrazino[1,2-a]indol-1(2H)-one], the Ki [1] is reported as under 1 nM and the GI50 [2, 3] is reported as 300 nM.
Molecule Cc1cc(OCCCc2c3n(c4c(-c5c(C)nn(C)c5C)c(Cl)ccc24)[C@H](C)CN(c2ccc4oc(C(=O)O)cc4c2)C3=O)cc(C)c1Cl [Example 196, (R)-5-(7-Chloro-10-(3-(4-chloro-3,5-dimethylphenoxy)propyl)-4-methyl-1-oxo-6-(1,3,5-trimethyl-1H-pyrazol-4-yl)-3,4-dihydropyrazino[1,2-a]indol-2(1H)-yl)benzofuran-2-carboxylic acid] has a Ki [1] of under 1 nM and a GI50 [2, 3] of 3400 nM.
Cc1cc(OCCCc2c3n(c4c(-c5c(C)nn(C)c5C)c(Cl)ccc24)[C@H](C)CN(c2cn(C)c4ccc(S(=O)(=O)N5CCN(C)CC5)cc24)C3=O)cc(C)c1Cl [Example 274, (R)-7-chloro-10-(3-(4-chloro-3,5-dimethylphenoxy)propyl)-4-methyl-2-(1-methyl-5-((4-methylpiperazin-1-yl)sulfonyl)-1H-indol-3-yl)-6-(1,3,5-trimethyl-1H-pyrazol-4-yl)-3,4-dihydropyrazino[1,2-a]indol-1(2H)-one] showed a Ki [1] of 4.8 nM and a GI50 [2, 3] of 2200 nM.
For Cc1cc(OCCCc2c3n(c4c(-c5c(C)nn(C)c5C)c(Cl)ccc24)[C@H](C)CN(c2cc(C(=O)O)c4cnn(C)c4c2)C3=O)cc(C)c1Cl [Example 53, (R)-6-(7-chloro-10-(3-(4-chloro-3,5-dimethylphenoxy)propyl)-4-methyl-1-oxo-6-(1,3,5-trimethyl-1H-pyrazol-4-yl)-3,4-dihydropyrazino[1,2-a]indol-2(1H)-yl)-1-methyl-1H-indazole-4-carboxylic acid], the Ki [1] was under 1 nM and the GI50 [2, 3] was 500 nM.
In the case of Cc1cc(OCCCc2c3n(c4c(-c5c(C)nn(C)c5C)c(Cl)ccc24)[C@H](C)CN(c2cn(C)c4ccc(-c5cnccn5)cc24)C3=O)cc(C)c1Cl [Example 430, (R)-7-Chloro-10-(3-(4-chloro-3,5-dimethylphenoxy)propyl)-4-methyl-2-(1-methyl-5-(pyrazin-2-yl)-1H-indol-3-yl)-6-(1,3,5-trimethyl-1H-pyrazol-4-yl)-3,4-dihydropyrazino[1,2-a]indol-1(2H)-one], the Ki [1] is reported as 1.9 nM and the GI50 [2, 3] is reported as 1400 nM.
Cc1cc(OCCCc2c3n(c4c(-c5c(C)nn(C)c5C)c(Cl)ccc24)[C@H](C)CN(c2cccc4c2c(C(=O)O)nn4C)C3=O)cc(C)c1Cl [Example 125, 4-[(4R)-7-chloro-10-[3-(4-chloro-3,5-dimethyl-phenoxy)propyl]-4-methyl-1-oxo-6-(1,3,5-trimethylpyrazol-4-yl)-3,4-dihydropyrazino[1,2-a]indol-2-yl]-1-methyl-indazole-3-carboxylic acid] showed a Ki [1] of under 1 nM and a GI50 [2, 3] of 7600 nM.
Molecule CC[C@@H]1Cn2c(c(CCCOc3cc(C)c(Cl)c(C)c3)c3ccc(Cl)c(-c4c(C)nn(C)c4C)c32)C(=O)N1c1ccc(C(=O)O)cc1 [Example 23, (R)-4-(7-chloro-10-(3-(4-chloro-3,5-dimethylphenoxy)propyl)-3-ethyl-1-oxo-6-(1,3,5-trimethyl-1H-pyrazol-4-yl)-3,4-dihydropyrazino[1,2-a]indol-2(1H)-yl)benzoic acid] has a Ki [1] of under 1 nM and a GI50 [2, 3] of 4900 nM.
With Cc1cc(OCCCc2c3n(c4c(-c5c(C)nc(CN6CCCC6)nc5C)c(Cl)ccc24)[C@H](C)CN(c2cn(C)c4ccc(C(=O)O)cc24)C3=O)cc(C)c1Cl [Example 390, (R)-3-(7-Chloro-10-(3-(4-chloro-3,5-dimethylphenoxy)propyl)-6-(4,6-dimethyl-2-(pyrrolidin-1-ylmethyl)pyrimidin-5-yl)-4-methyl-1-oxo-3,4-dihydropyrazino[1,2-a]indol-2(1H)-yl)-1-methyl-1H-indole-5-carboxylic acid] the Ki [1] was 2.3 nM and the GI50 [2, 3] was 340 nM.
For Cc1cc(OCCCc2c3n(c4c(-c5c(C)n[nH]c5C)c(Cl)ccc24)[C@H](C)CN(c2cn(C)c4ccc(C(=O)O)cc24)C3=O)cc(C)c1Cl [Example 129, (R)-3-(7-chloro-10-(3-(4-chloro-3,5-dimethylphenoxy)propyl)-6-(3,5-dimethyl-1H-pyrazol-4-yl)-4-methyl-1-oxo-3,4-dihydropyrazino[1,2-a]indol-2(1H)-yl)-1-methyl-1H-indole-5-carboxylic acid], the Ki [1] was under 1 nM and the GI50 [2, 3] was 550 nM.
Cc1cc(OCCCc2c3n(c4c(-c5c(C)nn(C)c5C)c(Cl)ccc24)[C@H](C)CN(c2cn(C)c4ccc(C5=NCCO5)cc24)C3=O)cc(C)c1Cl [Example 428, (R)-7-Chloro-10-(3-(4-chloro-3,5-dimethylphenoxy)propyl)-2-(5-(4,5-dihydrooxazol-2-yl)-1-methyl-1H-indol-3-yl)-4-methyl-6-(1,3,5-trimethyl-1H-pyrazol-4-yl)-3,4-dihydropyrazino[1,2-a]indol-1(2H)-one] gave a Ki [1] of 2 nM and a GI50 [2, 3] of 920 nM.
With Cc1cc(OCCCc2c3n(c4c(-c5c(C)ncnc5C)c(Cl)ccc24)CCCN(c2cccc4cc(C(=O)O)ccc24)C3=O)cc(C)c1Cl [Example 213, 5-[8-Chloro-11-[3-(4-chloro-3,5-dimethyl-phenoxy)propyl]-7-(4,6-dimethylpyrimidin-5-yl)-1-oxo-4,5-dihydro-3H-[1,4]diazepino[1,2-a]indol-2-yl]naphthalene-2-carboxylic acid] the Ki [1] was under 1 nM and the GI50 [2, 3] was under 200 nM.
For Cc1cc(OCCCc2c3n(c4c(-c5c(C)ncnc5C)c(Cl)ccc24)CCCN(c2cccc4c(C(=O)O)cccc24)C3=O)cc(C)c1Cl [Example 151, 5-[8-Chloro-11-[3-(4-chloro-3,5-dimethyl-phenoxy)propyl]-7-(4,6-dimethylpyrimidin-5-yl)-1-oxo-4,5-dihydro-3H-[1,4]diazepino[1,2-a]indol-2-yl]naphthalene-1-carboxylic acid], the Ki [1] was under 1 nM and the GI50 [2, 3] was 2100 nM.
For Cc1cc(OCCCc2c3n(c4c(-c5c(C)nc(CN6CCC(O)C6)nc5C)c(Cl)ccc24)[C@H](C)CN(c2cn(C)c4ccc(C(=O)O)cc24)C3=O)cc(C)c1Cl (stereo partly drawn) [Example 397, 3-((4R)-7-Chloro-10-(3-(4-chloro-3,5-dimethylphenoxy)propyl)-6-(2-((3-hydroxypyrrolidin-1-yl)methyl)-4,6-dimethylpyrimidin-5-yl)-4-methyl-1-oxo-3,4-dihydropyrazino[1,2-a]indol-2(1H)-yl)-1-methyl-1H-indole-5-carboxylic acid], the Ki [1] was 1.2 nM and the GI50 [2, 3] was 340 nM.
Molecule Cc1cc(OCCCc2c3n(c4c(-c5c(C)nn(C)c5C)c(Cl)ccc24)[C@H](C)CN(c2cccc4cc(C(=O)O)n(CCN(C)C)c24)C3=O)cc(C)c1Cl [Example 322, (R)-7-(7-Chloro-10-(3-(4-chloro-3,5-dimethylphenoxy)propyl)-4-methyl-1-oxo-6-(1,3,5-trimethyl-1H-pyrazol-4-yl)-3,4-dihydropyrazino[1,2-a]indol-2(1H)-yl)-1-(2-(dimethylamino)ethyl)-1H-indole-2-carboxylic acid] has a Ki [1] of 1.7 nM and a GI50 [2, 3] of 1800 nM.
With Cc1cc(OCCCc2c3n(c4c(-c5c(C)nn(C)c5C)c(Cl)ccc24)[C@H](C)CN(c2cn(C)c4cc(F)c(C(=O)O)cc24)C3=O)cc(C)c1Cl [Example 355, (M, R)-3-(7-Chloro-10-(3-(4-chloro-3,5-dimethylphenoxy)propyl)-4-methyl-1-oxo-6-(1,3,5-trimethyl-1H-pyrazol-4-yl)-3,4-dihydropyrazino[1,2-a]indol-2(1H)-yl)-6-fluoro-1-methyl-1H-indole-5-carboxylic acid] the Ki [1] was 1 nM and the GI50 ([2]; H929 cells, 72 h, Cell TiterGlo, 10% FBS, read-out: GI50 on cellular proliferation of H929 human cancer cell lines) was 730 nM.
In the case of Cc1cc(OCCCc2c3n(c4c(-c5c(C)nn(C)c5C)c(Cl)ccc24)CCCN(c2ccc4cnoc4c2)C3=O)cc(C)c1Cl [Example 64, 2-(1,2-benzoxazol-6-yl)-8-chloro-11-[3-(4-chloro-3,5-dimethyl-phenoxy)propyl]-7-(1,3,5-trimethylpyrazol-4-yl)-4,5-dihydro-3H-[1,4]diazepino[1,2-a]indol-1-one], the Ki [1] is reported as 4.8 nM and the GI50 [2, 3] is reported as 5600 nM.
Molecule Cc1cc(OCCCc2c3n(c4c(-c5c(C)nn(C)c5C)c(Cl)ccc24)[C@H](C)CN(c2cn(C)c4ccc(-c5ncccn5)cc24)C3=O)cc(C)c1Cl [Example 394, (R)-7-Chloro-10-(3-(4-chloro-3,5-dimethylphenoxy)propyl)-4-methyl-2-(1-methyl-5-(pyrimidin-2-yl)-1H-indol-3-yl)-6-(1,3,5-trimethyl-1H-pyrazol-4-yl)-3,4-dihydropyrazino[1,2-a]indol-1(2H)-one] has a Ki [1] of 2.8 nM and a GI50 [2, 3] of 270 nM.
Cc1cc(OCCCc2c3n(c4c(-c5c(C)nn(C)c5C)c(Cl)ccc24)[C@H](C)[C@@H](C)NC3=O)cc(C)c1Cl [Example 140, (3R,4R)-7-chloro-10-(3-(4-chloro-3,5-dimethylphenoxy)propyl)-3,4-dimethyl-6-(1,3,5-trimethyl-1H-pyrazol-4-yl)-3,4-dihydropyrazino[1,2-a]indol-1(2H)-one] gave a Ki [1] of 79 nM and a GI50 [2, 3] of 7600 nM.
